Reference: patent US10435396B2, “2-substituted indazoles, methods for producing same, pharmaceutical preparations that contain same, and use of same to produce drugs” (Bayer Pharma Aktiengesellschaft, priority 2016, dated 2019)

Columns and labels:
[1] = system: secretion of TNF-α in THP-1 cells; assay: TNF-α secretion in THP-1 cells (LPS-triggered); assay type: cell-based, human; details: Homo sapiens, THP-1, 17 h, LPS 0.05 μg/ml, read-out: IC50 with respect to the secretion of TNF-α in THP-1 cells
Procedure: TNF-α Secretion in THP-1 Cells
With the aid of this test, it is possible to test substances for their ability to inhibit secretion of TNF-α (tumour necrosis factor alpha) in THP-1 cells (human monocytic acute leukaemia cell line). TNF-α is a cytokine involved in inflammatory processes. In this test, TNF-α secretion is triggered by incubation with bacterial lipopolysaccharide (LPS).
THP-1 cells are kept in continuous suspension cell culture [RPMI 1460 medium with L-Glutamax (Gibco, Cat No. 61870-044) supplemented with foetal calf serum (FCS) 10% (Invitrogen, Cat No. 10082-147), 1% penicillin/streptomycin (Gibco BRL, Cat No. 15140-114)] and should not exceed a cell concentration of 1×10^6 cells/ml. The assay is carried out in cell culture medium (RPMI 1460 medium with L-Glutamax supplemented with FCS 10%).
In each case 2-2.5 μl of the cell suspension (corresponds to 4000 cells) per well were dispensed into a 384-well test plate (Greiner, Cat No. 784076), in each of which 40-50 nl substance had been dissolved in 100% DMSO. This was done using […] in the range from 20 μM to 0.073 nM for each substance. The cells were incubated at room temperature for 15 min. 2-2.5 μl of 0.1 μg/ml LPS (Sigma, Escherichia coli 055:B5, Cat. No. L5418) dissolved in cell culture medium (final concentration 0.05 μg/ml) were then dispensed into each well. As neutral control, cells were treated with 0.05 μg/ml LPS and 1% DMSO and, as inhibitor control, with 1% DMSO only.
The plates were centrifuged at 80 g for 30 s and incubated at 37° C., 5% CO2 and 95% atmospheric humidity for 17 h. The amount of TNF-α was determined using the TNF-alpha HTRF Detection Kit (Cisbio, Cat No. 62TNFPEB/C). To this end, 2 μl of the detection solution in each case, consisting of anti-TNF-α-XL665 conjugate and anti-TNF-α-cryptate conjugate dissolved in the reconstitution buffer in accordance with the manufacturer's instructions, were added for the HTRF (Homogeneous Time-Resolved Fluorescence) test. After the addition, the mixture was incubated either at room temperature for 3 h or at 4° C. overnight. The signals were then read at 620/665 nm using an HTRF-enabled measuring instrument such as the BMG PheraStar.
The activity of the substances is expressed as the ratio between neutral and inhibitor control in percent. The IC50 values were calculated using a 4-parameter fit.

human IRAK4 = human IRAK4 (Homo sapiens (Human), UniProt Q9NWZ3); assay: IRAK4 kinase assay (IRAK4 TR-FRET assay); assay type: biochemical; details: 1 mM ATP
Procedure: The IRAK4-inhibitory activity of the substances according to the invention was measured in the IRAK4 TR-FRET assay (TR-FRET=Time Resolved Fluorescence Resonance Energy Transfer) described hereinafter.
Recombinant fusion protein from N-terminal GST (glutathione S-transferase) and human IRAK4, expressed in baculovirus-infected insect cells (Hi5, BTI-TN-5B1-4, cell line purchased from Invitrogen, catalogue No. B855-02) and purified via affinity chromatography, was used as enzyme. The substrate used for the kinase reaction was the biotinylated peptide biotin-Ahx-[…] (C-terminus in amide form) which can be purchased, for example, from Biosyntan GmbH (Berlin-Buch).
For the assay, 11 different concentrations in the range from 20 μM to 0.073 nM were prepared from a 2 mM solution of the test substance in DMSO. 50 nl of the respective solution were pipetted into a black low-volume 384-well microtitre plate (Greiner Bio-One, Frickenhausen, Germany), 2 μl of a solution of IRAK4 in assay buffer [50 mM HEPES pH 7.5, 5 mM MgCl2, 1.0 mM dithiothreitol, 30 μM activated sodium orthovanadate, 0.1% (w/v) of bovine gamma-globulin (BGG) 0.04% (v/v) nonidet-P40 (Sigma)] were added and the mixture was incubated for 15 min to allow prebinding of the substances to the enzyme prior to the kinase reaction. The kinase reaction was then started by addition of 3 μl of a solution of adenosine triphosphate (ATP, 1.67 mM=final concentration in 5 μl of assay volume: 1 mM) and peptide substrate (0.83 μM=final concentration in 5 μl assay volume: 0.5 μM) in assay buffer, and the resulting mixture was incubated at 22° C. for the reaction time of 45 min. The concentration of the IRAK4 was adjusted to the respective activity of the enzyme and set such that the assay was carried out in the linear range. Typical concentrations were in the order of about 0.2 nM. The reaction was stopped by addition of 5 μl of a solution of TR-FRET detection reagents [0.1 μM streptavidin-XL665 (Cisbio Bioassays; France, catalogue No. 610SAXLG)] and 1.5 nM anti-phosphoserine antibody [Merck Millipore, “STK Antibody”, catalogue No. 35-002] and 0.6 nM LANCE EU-W1024-labelled anti-mouse-IgG antibody (Perkin-Elmer, product No. AD0077; alternatively, it is possible to use a terbium cryptate-labelled anti-mouse-IgG antibody from Cisbio Bioassays) in aqueous EDTA solution (100 mM EDTA, 0.4% [w/v] bovine serum albumin [BSA] in 25 mM HEPES pH 7.5).
The resulting mixture was incubated at 22° C. for 1 h to allow formation of a complex of the biotinylated phosphorylated substrate and the detection reagents. The amount of the phosphorylated substrate was then evaluated by measuring the resonance energy transfer from europium chelate-labelled anti-mouse-IgG antibody to streptavidin-XL665. To this end, the fluorescence emissions at 620 nm and 665 nm were measured after excitation at 350 nm in a TR-FRET measuring instrument, for example a Rubystar (BMG Labtechnologies, Offenburg, Germany) or a Viewlux (Perkin-Elmer). The ratio of the emissions at 665 nm and 622 nm was taken as a measure of the amount of phosphorylated substrate. The data were normalized (enzyme reaction without test substance=0% inhibition; all other assay components but no enzyme=100% inhibition). Typically, the test substances were tested on the same microtitre plates at 11 different concentrations in the range from 20 μM to 0.073 nM (20 μM, 5.7 μM, 1.6 μM, 0.47 μM, 0.13 μM, 38 nM, 11 nM, 3.1 nM, 0.89 nM, 0.25 nM and 0.073 nM). The dilution series were prepared prior to the assay (2 mM to 7.3 nM in 100% DMSO) by serial dilutions. The IC50 values were calculated using a 4-parameter fit.

human IRAK4, sequence (Q9NWZ3 whole entry): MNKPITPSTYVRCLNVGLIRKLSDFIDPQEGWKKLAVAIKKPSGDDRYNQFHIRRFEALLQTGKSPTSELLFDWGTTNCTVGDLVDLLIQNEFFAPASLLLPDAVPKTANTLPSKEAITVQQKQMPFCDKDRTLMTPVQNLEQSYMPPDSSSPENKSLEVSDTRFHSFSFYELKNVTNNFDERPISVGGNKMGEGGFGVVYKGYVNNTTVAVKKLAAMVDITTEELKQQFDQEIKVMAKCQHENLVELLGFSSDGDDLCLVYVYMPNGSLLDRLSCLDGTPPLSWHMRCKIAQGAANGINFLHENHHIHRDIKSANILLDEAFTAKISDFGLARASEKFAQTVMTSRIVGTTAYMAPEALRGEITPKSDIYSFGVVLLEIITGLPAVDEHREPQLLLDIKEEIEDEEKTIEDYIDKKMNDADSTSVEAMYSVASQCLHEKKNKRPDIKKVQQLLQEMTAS

IC50 [1] [nM]	IC50 (human IRAK4) [nM]	SMILES
840	10	COc1cc2nn(C3CCOCC3)cc2cc1NC(=O)c1csc(C)n1 [Example 25, N-[6-Methoxy-2-(tetrahydro-2H-pyran-4-yl)-2H-indazol-5-yl]-2-methyl-1,3-thiazole-4-carboxamide]
280	47	O=C(Nc1cc2cn(C3CCOCC3)nc2cc1Cl)c1cccc(C(F)(F)F)n1 [Example 30, N-[6-Chloro-2-(tetrahydro-2H-pyran-4-yl)-2H-indazol-5-yl]-6-(trifluoromethyl)pyridine-2-carboxamide]
630	10	COc1cc2nn(C3CCOC3)cc2cc1NC(=O)c1cccc(C(F)(F)F)n1 (stereo not drawn) [Example 29, N-[6-Methoxy-2-(tetrahydrofuran-3-yl)-2H-indazol-5-yl]-6-(trifluoromethyl)pyridine-2-carboxamide]
220	6	COc1cc2nn(C3CCOCC3)cc2cc1NC(=O)c1cccc(N)n1 [Example 26, 6-Amino-N-[6-methoxy-2-(tetrahydro-2H-pyran-4-yl)-2H-indazol-5-yl]pyridine-2-carboxamide]
1800	11	COC(=O)c1cc2nn(C3CCOCC3)cc2cc1NC(=O)c1cccc(C(F)(F)F)n1 [Example 33, Methyl 2-(tetrahydro-2H-pyran-4-yl)-5-({[6-(trifluoromethyl)pyridin-2-yl]carbonyl}amino)-2H-indazole-6-carboxylate]
110	20	O=C(Nc1cc2cn(C3CCS(=O)(=O)CC3)nc2cc1OCC1CC1)c1cccc(C(F)(F)F)n1 [Example 17, N-[6-(Cyclopropylmethoxy)-2-(1,1-dioxidotetrahydro-2H-thiopyran-4-yl)-2H-indazol-5-yl]-6-(trifluoromethyl)pyridine-2-carboxamide]
150	13	COc1cc2nn(C3CNC(=O)C3)cc2cc1NC(=O)c1cccc(C(F)(F)F)n1 (stereo not drawn) [Example 22, N-[6-Methoxy-2-(5-oxopyrrolidin-3-yl)-2H-indazol-5-yl]-6-(trifluoromethyl)pyridine-2-carboxamide]

The next lines start with the compound.

SMILES	IC50 [1] [nM]	IC50 (human IRAK4) [nM]
COc1cc2nn([C@H]3C[C@@H]4C[C@H]3CN4C)cc2cc1NC(=O)c1cccc(C(F)(F)F)n1 (relative stereo) [Example 19, rel-N-{6-Methoxy-2-[(1S,4S,5S)-2-methyl-2-azabicyclo[2.2.1]hept-5-yl]-2H-indazol-5-yl}-6-(trifluoromethyl)pyridine-2-carboxamide]	190	9
COc1cc2nn(C3CCN(S(=O)(=O)NC(C)=O)CC3)cc2cc1NC(=O)c1cccc(C(F)(F)F)n1 [Example 8, N-{2-[1-(Acetylsulphamoyl)piperidin-4-yl]-6-methoxy-2H-indazol-5-yl}-6-(trifluoromethyl)pyridine-2-carboxamide]	520	8
CC(C)(O)c1cc2nn([C@H]3CCOC3)cc2cc1NC(=O)c1cccc(C(F)(F)F)n1 [Example 36, N-{6-(2-Hydroxypropan-2-yl)-2-[(3S)-tetrahydrofuran-3-yl]-2H-indazol-5-yl}-6-(trifluoromethyl)pyridine-2-carboxamide]	540	28
CC(C)(O)c1cc2nn(C3CCOCC3)cc2cc1NC(=O)c1cccc(C(F)(F)F)n1 [Example 34, N-[6-(2-Hydroxypropan-2-yl)-2-(tetrahydro-2H-pyran-4-yl)-2H-indazol-5-yl]-6-(trifluoromethyl)pyridine-2-carboxamide]	230	6
CC(C)(O)c1cc2nn([C@@H]3CCOC3)cc2cc1NC(=O)c1cccc(C(F)(F)F)n1 [Example 38, N-{6-(2-Hydroxypropan-2-yl)-2-[(3R)-tetrahydrofuran-3-yl]-2H-indazol-5-yl}-6-(trifluoromethyl)pyridine-2-carboxamide]	630	31
CC(C)(O)c1cccc(C(=O)Nc2cc3cn(C4CCS(=O)(=O)CC4)nc3cc2Cl)n1 [Example 32, N-[6-Chloro-2-(1,1-dioxidotetrahydro-2H-thiopyran-4-yl)-2H-indazol-5-yl]-6-(2-hydroxypropan-2-yl)pyridine-2-carboxamide]	280	34
COc1cc2nn(C3CCOCC3)cc2cc1NC(=O)c1ccnc(C(C)C)n1 [Example 27, 2-Isopropyl-N-[6-methoxy-2-(tetrahydro-2H-pyran-4-yl)-2H-indazol-5-yl]pyrimidine-4-carboxamide]	1790	111
COc1cc2nn(C3CCN(CC(F)(F)F)CC3)cc2cc1NC(=O)c1cccc(C(F)(F)F)n1 [Example 3, N-{6-Methoxy-2-[1-(2,2,2-trifluoroethyl)piperidin-4-yl]-2H-indazol-5-yl}-6-(trifluoromethyl)pyridine-2-carboxamide]	750	7
O=C(Nc1cc2cn(C3CCOCC3)nc2cc1Cl)c1cccc(C(F)F)n1 [Example 31, N-[6-Chloro-2-(tetrahydro-2H-pyran-4-yl)-2H-indazol-5-yl]-6-(difluoromethyl)pyridine-2-carboxamide]	90	22
CN1CCC(n2cc3cc(NC(=O)c4cccc(C(F)(F)F)n4)c(C(N)=O)cc3n2)CC1 [Example 57, 2-(1-Methylpiperidin-4-yl)-5-({[6-(trifluoromethyl)pyridin-2-yl]carbonyl}amino)-2H-indazole-6-carboxamide]	–	2
